This is an account of results in patent US12090195B2 (priority 2018, dated 2024).

The test system of series [1] is mice. The settings on record: mouse, in vivo, ip; cited from earlier work.
Series [2] has as its system six microorganisms (bacteria, yeast, fungus). Type of series: cell-based.

By LD50 is commonly meant the dose expected to kill half of the subjects tested. For `COC(=O)c1ccc(O)cc1` [methyl paraben], the 50% lethal dose (LD50) in series [1] is 1000 mg/kg.

Turning to `OCCOc1ccccc1` [Combination 2-PE, 2-Phenoxyethanol], the “antimicrobial activity against yeast and fungi” value in series [2] is “weaker antimicrobial activity than Thiomersal”.
